Test results taken from US7541463B2, “Sulfur-containing naphthalimide derivatives” (East China University of Science and Technology, priority 2003, dated 2009).
“Also recorded” adds a separate entry of the source. Values belong to the compound of their own block, whether it stands above or below them.

Columns and labels:
DNA = DNA double strand break (further studies)
H22 hepatoma = test: In vivo tumor inhibition, H22 hepatoma
[1] = Body weight and deaths of S-180 bearing mice; format: in vivo
tumor cell cycle = test: Tumor cell cycle arrest (further studies); format: cell-based; conditions: significantly dose-dependent
tumor cell = test: Tumor cell apoptosis (further studies); format: cell-based
S-180 sarcoma [2] = test: In vivo tumor growth inhibition, S-180 sarcoma in mice; conditions: for activity against mice S180 sarcoma (in words): i.p. injection
Experimental: S-180 sarcoma developed for 7-11 days and in good growth trend was homogenated into cell suspension. The cell suspension was inoculated subcutaneously into right armpit of female KM mice (18˜22 g) (about 1.0−2.5×10^6 cells/mouse). After 24 h, the mice were grouped in random with compounds administrated by i.p. injection. From the next day on, the mice were given serial dosages. After treatment, animals were killed, and solid tumors were removed and weighed after the body weight were weighed. The inhibition rate was calculated as follows, and T-test was carried out: [(Average tumor weight of NS group−Average tumor weight of test group)/Average tumor weight of NS group]×100%.

S-180 sarcoma [3] = test: as above
mice leukemia cell P388 = test: Growth inhibition of P388 cells, MTT assay; format: cell-based; conditions: Mus musculus, read-out: Growth inhibition effect to P388 cell strain; for inhibition at 100 µM: 10^−4 M; for inhibition at 10 µM: 10^−5 M; for inhibition at 1 µM: 10^−6 M; for inhibition at 0.1 µM: 10^−7 M; for inhibition at 0.01 µM: 10^−8 M
Experimental: (§1) The cell growth inhibition of mice leukemia cell P388 was evaluated by MTT (microculture tetrozolium) assay, while the cell growth inhibition of human lung adenocarcinoma cell A-549 was evaluated by SRB (Sulforhodamine B) protein staining assay.
(§2) The procedure of MTT assay was as follows: appropriate amount of cells in log phase were seeded in 96-well plates (6000 cells/well, 15000 cells/well, 90ul/well) according to the growing rate. After cultured for 24 h, cells were exposed to serial dilutions of drugs in triplicate (10 ul/well). In addition, wells without cell, and wells without cell but with serial dilutions of drugs in case of using a colored-drug were set for zeroing. Then, the cells were cultured in 5% CO2 humidified incubator at 37° C. for 48 h. After treatment of drugs for 48 h, 20ul MTT (Sigma) which was diluted by normal saline to the concentration of 5 mg/ml was added to each well, 50ul/well 10%SDS-5% isobutanol-0.01% mol/LHCl was added after 4 h. After cultured overnight, absorbance was measured at 570 nm using a multiwell spectrophotometer. The inhibition effect of the compounds in test (percentage of growth inhibition) was calculated for each well: % inhibition=(OD570control cells−OD570treated cells)/OD570control cells×100%.
(§3) The cell lines used were mice leukemia cell P388, human leukemia cell MOLT-4, human lung adenocarcinoma cell A-549, human gastric adenocarcinoma SGC-7901, human hepatocellular carcinoma BEL-7402 and human embryonal fibroblast WI-38 (commerially available from ATCC).
(§4) The exposure time to compounds was 48 h-72 h.

[4] = test system: human lung adenocarcinoma cell A-549; test: Growth inhibition of A-549 cells, SRB protein staining assay; format: cell-based; conditions: read-out: Growth inhibition effect to A-549 cell strain; for inhibition at 100 µM: A549, 10^−4 M; for inhibition at 10 µM: A549, 10^−5 M; for inhibition at 1 µM: A549, 10^−6 M; for inhibition at 0.1 µM: A549, 10^−7 M; for inhibition at 0.01 µM: A549, 10^−8 M
Experimental: as §1
(§5) The procedure of SRB assay was as follows: appropriate amount of cells in log phase were seeded in 96-well plates according to the growing rate (90 ul/well). After cultured for 24 h, cells were exposed to serial dilutions of drugs in triplicate (10 ul/well). In addition, control wells of normal saline in corresponding concentrations and zeroing wells without cell were set. The cells were incubated in 5% CO2 humidified incubator at 37° C. After 72 h, the medium was removed and cells were fixed with cold 10% trichloric acid (TCA) at 4° C. for 1 h. The plates were washed with distilled water 5 times, and stained in room temperature with 4 mg/ml SRB (Sigma, diluted with 1% glacial acetic acid, 100 ul/well) for 15 minutes after air drying. SRB was then washed with 1% acetic acid 5 times. Plates were dried, followed by adding 150 ul/well Tris solution. Absorbance was measured at […] using a multiwell spectrophotometer. The inhibition effect of the compounds in test (percentage of growth inhibition) was calculated for each well: % inhibition=(A540control cells−A540treated cells)/A540control cells×100%.
as §3, §4

[5] = test system: human gastric adenocarcinoma SGC-7901; test: Growth inhibition of SGC-7901 cells (MTT or SRB assay); format: cell-based; conditions: read-out: Growth inhibition effect to SGC-7901 cell strain
Experimental: as §2, §5
(§6) The methods used were MTT assay or SRB assay.
as §3, §4

[6] = test system: human leukemia cell MOLT-4; test: Growth inhibition of MOLT-4 cells (MTT or SRB assay); format: cell-based; conditions: read-out: Growth inhibition effect to MOLT-4 cell strain
Experimental: as §2, §5, §6, §3, §4

[7] = test system: human hepatocellular carcinoma BEL-7402; test: Growth inhibition of BEL-7402 cells (MTT or SRB assay); format: cell-based; conditions: read-out: Growth inhibition effect to BEL-7402 cell strain
Experimental: as §2, §5, §6, §3, §4

[8] = 75 mg/kg i.v, injected twice (Day 1 and Day 4)

SMILES: CN(C)CCN1C(=O)c2cccc3cc(N)cc(c23)C1=O [Amonafide, N-(β-dimethylaminoethyl)-3-amino-1,8-naphthalimide, reference compound]
DNA double strand break (DNA): induce the broken of DNA double strand
activity in parallel experiments (in words) (H22 hepatoma; compared with C16): not as active
Weight of mice (g) Day 7 ([1]; 5 mg/kg i.p): 32.0 g
Weight of mice (g) Day 7 ([1]; 10 mg/kg i.p): 31.3 g
tumor cell cycle arrest (tumor cell cycle): arrest tumor cell cycle in G2/M phase
tumor cell apoptosis (tumor cell): trigger tumor cell apoptosis
Weight of tumor (g) mean ± SD (S-180 sarcoma [2]; S-180 sarcoma, 5 mg/kg i.p): 1.12 ± 0.35 g
activity against mice S180 sarcoma (in words) (S-180 sarcoma [2]): not potent
Tumor growth inhibition % (S-180 sarcoma [3]; 5 mg/kg i.p): 30.9%
Tumor growth inhibition % (S-180 sarcoma [3]; 10 mg/kg i.p): 15.4%
Weight of tumor (g) mean ± SD (S-180 sarcoma [3]; 10 mg/kg i.p): 1.37 ± 0.26 g

SMILES: CN(C)CCN1C(=O)c2cccc3c2c(cc2c4ccccc4sc32)C1=O [compound 16, N-(N′,N′-dimethylaminoethyl)benzo[b]thieno[2,1-c]naphthalimide]
inhibition at 100 µM (mice leukemia cell P388): 100%
inhibition at 10 µM (mice leukemia cell P388): 95.9%
inhibition at 1 µM (mice leukemia cell P388): 68.2%
inhibition at 0.1 µM (mice leukemia cell P388): 21.4%
inhibition at 0.01 µM (mice leukemia cell P388): 13.8%
DNA double strand break (DNA): induce the broken of DNA double strand
tumor inhibition (in words) (H22 hepatoma; 7.5 mg/kg): not active
tumor inhibition rate (H22 hepatoma; i.p. 15 mg/kg): 51.0%
tumor inhibition rate (H22 hepatoma; i.p. 30 mg/kg): 72.6%
Weight of mice (g) Day 7 ([1]; 12.5 mg/kg i.p): 26.9 g
Weight of mice (g) Day 7 ([1]; 25 mg/kg i.p): 18.6 g
Weight of mice (g) Day 7 ([1]; 50 mg/kg i.p): 12.9 g
tumor cell cycle arrest (tumor cell cycle): arrest tumor cell cycle in G2/M phase
inhibition at 100 µM [4]: 97.1%
inhibition at 10 µM [4]: 96.6%
inhibition at 1 µM [4]: 85.2%
inhibition at 0.1 µM [4]: 72.2%
inhibition at 0.01 µM [4]: 55.3%
tumor cell apoptosis (tumor cell): trigger tumor cell apoptosis
Weight of tumor (g) mean ± SD (S-180 sarcoma [2]; S-180 sarcoma, 12.5 mg/kg i.p): 1.14 ± 0.29 g
Tumor growth inhibition % (S-180 sarcoma [2]; S-180 sarcoma, 25 mg/kg i.p): 71.6%
Weight of tumor (g) mean ± SD (S-180 sarcoma [2]; S-180 sarcoma, 25 mg/kg i.p): 0.46 ± 0.24 g
activity against mice S180 sarcoma (in words) (S-180 sarcoma [2]): active
Tumor growth inhibition % (S-180 sarcoma [3]; 12.5 mg/kg i.p): 29.6%
Tumor growth inhibition % (S-180 sarcoma [3]; 50 mg/kg i.p): 95.6%
Weight of tumor (g) mean ± SD (S-180 sarcoma [3]; 50 mg/kg i.p): 0.08 ± 0.04 g

SMILES: O=c1[nH]cc(F)c(=O)[nH]1 [5-FU]
Weight of mice (g) Day 7 [1, 8]: 20.7 g
Tumor growth inhibition % (S-180 sarcoma [3]; [8]): 96.9%
Weight of tumor (g) mean ± SD (S-180 sarcoma [3]; [8]): 0.05 ± 0.04 g

melting point: 229 to 230 °C
SMILES: CN(C)CCN1C(=O)c2cccc3c2c(cc2nc(-c4cccc([N+](=O)[O-])c4)sc23)C1=O [compound 7, N-(N′,N′-dimethylaminoethyl)-4H, 6H-9-m-nitrophenyl-benzo[de]thiazol[5,4-g]isoquinoline4,6-diketone]
inhibition at 100 µM ([5]; 10^−4 M): 96.4%
inhibition at 10 µM ([5]; 10^−5 M): 95.1%
inhibition at 1 µM ([5]; 10^−6 M): 67%
inhibition at 0.1 µM ([5]; 10^−7 M): 6.9%
inhibition at 0.01 µM ([5]; 10^−8 M): 3.4%
inhibition at 100 µM (mice leukemia cell P388): 98.7%
inhibition at 10 µM (mice leukemia cell P388): 74.6%
inhibition at 1 µM (mice leukemia cell P388): 47.9%
inhibition at 0.1 µM (mice leukemia cell P388): 15.8%
inhibition at 0.01 µM (mice leukemia cell P388): 18%
inhibition at 100 µM [4]: 89.1%
inhibition at 10 µM [4]: 89%
inhibition at 1 µM [4]: 72.3%
inhibition at 0.1 µM [4]: 71.3%
inhibition at 0.01 µM [4]: 52%
activity against mice S180 sarcoma (in words) (S-180 sarcoma [2]; listed as C7): not potent; also recorded: active against S180 sarcoma, but weaker than C16
inhibition at 100 µM ([6]; 10^−4 M): 95.1%
inhibition at 10 µM ([6]; 10^−5 M): 99.2%
inhibition at 1 µM ([6]; 10^−6 M): 100%
inhibition at 0.1 µM ([6]; 10^−7 M): 13.3%
inhibition at 0.01 µM ([6]; 10^−8 M): 0%
inhibition at 100 µM ([7]; 10^−4 M): 96.9%
inhibition at 10 µM ([7]; 10^−5 M): 95.8%
inhibition at 1 µM ([7]; 10^−6 M): 80.6%
inhibition at 0.1 µM ([7]; 10^−7 M): 33.1%
inhibition at 0.01 µM ([7]; 10^−8 M): 17%
